Test results reported in article PMC6148764, “Consensus design for improved thermostability of lipoxygenase from Anabaena sp. PCC 7120” (BMC Biotechnology, 2018).

Tests used:
Assay in all cases: hydroperoxide formation at […] nm, spectrophotometer, initial rate
Format in all cases: biochemical
Conditions in all cases: Tris-HCl pH 9.0, 30 °C
Ana-rLOX [1] = biological target: T1, Ana-rLOX (Nostoc sp. PCC 7120 = FACHB-418, UniProt Q8YK97, S755T)
T1 construct: gene all8020

Ana-rLOX [2] = biological target: T2, Ana-rLOX (Nostoc sp. PCC 7120 = FACHB-418, UniProt Q8YK97, G578A)
T2 construct: gene all8020
T2 sequence (Q8YK97 319-773 G578A): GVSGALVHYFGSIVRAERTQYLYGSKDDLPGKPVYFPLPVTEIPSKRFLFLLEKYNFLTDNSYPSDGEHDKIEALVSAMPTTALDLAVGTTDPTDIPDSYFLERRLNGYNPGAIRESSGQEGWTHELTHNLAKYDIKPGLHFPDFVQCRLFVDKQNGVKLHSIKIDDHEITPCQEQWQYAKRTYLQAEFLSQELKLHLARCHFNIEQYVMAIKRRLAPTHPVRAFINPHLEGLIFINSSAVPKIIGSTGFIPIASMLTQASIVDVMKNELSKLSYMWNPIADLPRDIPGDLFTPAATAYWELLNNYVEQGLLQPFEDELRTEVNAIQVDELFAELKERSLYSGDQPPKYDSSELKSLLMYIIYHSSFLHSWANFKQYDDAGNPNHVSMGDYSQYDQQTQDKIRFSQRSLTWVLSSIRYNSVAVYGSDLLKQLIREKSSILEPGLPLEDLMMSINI

Ana-rLOX [3] = biological target: T3, Ana-rLOX (Nostoc sp. PCC 7120 = FACHB-418, UniProt Q8YK97, N448D/G578Q)
T3 construct: gene all8020
T3 sequence (Q8YK97 319-773 N448D/G578Q): as the sequence (Q8YK97 319-773 G578A) above, with N130D, A260Q counted along it

Ana-rLOX [4] = biological target: T4, Ana-rLOX (Nostoc sp. PCC 7120 = FACHB-418, UniProt Q8YK97)
T4 construct: gene all8020
T4 sequence (Q8YK97 319-773 limits assumed): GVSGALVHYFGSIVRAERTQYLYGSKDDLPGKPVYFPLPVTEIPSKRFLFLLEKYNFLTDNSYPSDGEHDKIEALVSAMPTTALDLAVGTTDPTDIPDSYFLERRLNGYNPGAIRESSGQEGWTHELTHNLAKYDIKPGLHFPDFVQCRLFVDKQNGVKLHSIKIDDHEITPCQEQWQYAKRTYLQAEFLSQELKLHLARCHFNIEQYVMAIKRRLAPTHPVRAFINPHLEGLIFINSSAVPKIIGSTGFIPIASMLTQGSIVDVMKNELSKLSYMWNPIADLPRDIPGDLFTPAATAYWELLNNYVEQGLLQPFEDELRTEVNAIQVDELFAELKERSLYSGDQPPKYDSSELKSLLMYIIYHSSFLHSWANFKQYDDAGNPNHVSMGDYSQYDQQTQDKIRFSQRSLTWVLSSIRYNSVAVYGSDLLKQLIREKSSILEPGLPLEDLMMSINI

Ana-rLOX [5] = biological target: T5, Ana-rLOX (Nostoc sp. PCC 7120 = FACHB-418, UniProt Q8YK97, N448D/S755Y)
T5 construct: gene all8020
T5 sequence (Q8YK97 319-773 N448D/S755Y): as the sequence (Q8YK97 319-773 G578A) above, with N130D, A260G, S437Y counted along it

Ana-rLOX [6] = biological target: T6, Ana-rLOX (Nostoc sp. PCC 7120 = FACHB-418, UniProt Q8YK97, N448D)
T6 construct: gene all8020
T6 sequence (Q8YK97 319-773 N448D): as the sequence (Q8YK97 319-773 G578A) above, with N130D, A260G counted along it

T1 sequence (Q8YK97 319-773 S755T): as the sequence (Q8YK97 319-773 G578A) above, with A260G, S437T counted along it

`CCCCC/C=C\C/C=C\CCCCCCCC(=O)O` [linoleic acid] was tested, and the Km (Ana-rLOX [1]) was 56 ± 4.7 µM, the Km (Ana-rLOX [2]) was 34 ± 2.3 µM and the Km (Ana-rLOX [3]) was 13 ± 1 µM. For the same compound, the Km (Ana-rLOX [4]) was 56 ± 4 µM, the Km (Ana-rLOX [5]) was 15 ± 1.1 µM and the Km (Ana-rLOX [6]) was 30 ± 2.6 µM.
